The values that follow come from patent US6579881B2 (Eisai Co., Ltd., priority 1997, dated 2003).

For one assay, the target named is serotonin 2 receptor (Rattus norvegicus, UniProt P14842). Kind of assay: Binding test on [3H] ketanserin (serotonin 2 receptor). Conditions: [3H] ketanserin 0.3 nM, receptor fraction of rat cerebral cortex; read-out: 5HT2.
In another assay the target is T1, serotonin 1A receptor (Rattus norvegicus, UniProt P19327).
T1 construct: To the receptor fraction of the hippocampus were added a test compound and 0.5 nM of [^3H]; 8-hydroxy-dipropylaminotetralin; from tissue; host or cells: SD rat hippocampus, membrane (receptor) fraction
T1 sequence (P19327 1-422): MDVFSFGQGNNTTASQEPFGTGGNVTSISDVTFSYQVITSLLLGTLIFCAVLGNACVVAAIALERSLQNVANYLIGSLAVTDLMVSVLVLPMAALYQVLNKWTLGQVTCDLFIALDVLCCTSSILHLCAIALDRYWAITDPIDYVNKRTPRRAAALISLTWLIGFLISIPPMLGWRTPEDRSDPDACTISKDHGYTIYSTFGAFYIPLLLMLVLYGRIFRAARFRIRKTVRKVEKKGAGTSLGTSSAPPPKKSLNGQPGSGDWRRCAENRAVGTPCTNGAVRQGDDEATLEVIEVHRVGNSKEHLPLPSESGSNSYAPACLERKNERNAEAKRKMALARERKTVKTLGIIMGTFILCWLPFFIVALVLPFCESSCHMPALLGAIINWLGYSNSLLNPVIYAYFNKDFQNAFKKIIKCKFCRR
Kind of assay: Binding test on [3H] 8-hydroxy-dipropylaminotetralin (serotonin 1A receptor). The note with it: [3H] 8-OH-DPAT 0.5 nM, receptor fraction of rat hippocampus; read-out: 5HT1a.

SMILES strings stand for the structures.

Sequence of serotonin 2 receptor (P14842 whole entry): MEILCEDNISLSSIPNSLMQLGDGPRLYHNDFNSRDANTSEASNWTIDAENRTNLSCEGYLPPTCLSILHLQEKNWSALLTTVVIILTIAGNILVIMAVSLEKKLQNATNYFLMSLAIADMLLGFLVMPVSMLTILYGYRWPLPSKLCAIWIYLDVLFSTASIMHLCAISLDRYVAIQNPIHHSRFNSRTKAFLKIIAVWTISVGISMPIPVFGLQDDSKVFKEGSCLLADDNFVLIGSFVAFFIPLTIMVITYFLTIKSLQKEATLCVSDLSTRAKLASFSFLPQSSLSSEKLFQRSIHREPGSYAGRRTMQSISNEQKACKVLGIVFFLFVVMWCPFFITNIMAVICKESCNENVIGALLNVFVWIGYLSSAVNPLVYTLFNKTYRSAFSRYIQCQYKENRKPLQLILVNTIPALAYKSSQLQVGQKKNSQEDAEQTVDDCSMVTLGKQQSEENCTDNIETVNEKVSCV

Turning to `OCCOc1cccc(CCN2CCC(N3CCc4ccccc43)CC2)c1` [Example 43, 1-{3-[(2-hydroxyethoxy)phenethyl]piperidin-4-yl}indoline], the Ki at serotonin 2 receptor was 37.9 nM; on serotonin 1A receptor, 4.2 nM.
In the same order, the values of `CN(C)CCOc1ccc(CCN2CCC(N3CCc4ccccc43)CC2)cc1` [Example 44, 1-{1-[4-(2-dimethylaminoethoxy)phenethyl]piperidin-4-yl}indoline] are 43.7 nM and 4 nM.
For `OCc1ccc(CCN2CCC(N3CCc4ccccc43)CC2)cc1CO` [Example 45, 1-{1-[3,4-di(hydroxymethyl)phenethyl]piperidin-4-yl}indoline] the same measures were 6.4 nM and 15.2 nM.
For `c1ccc2c(c1)CCN2C1CCN(CCc2ccc3c(c2)OCO3)CC1` [Example 46, 1-{1-[3,4-(methylenedioxy)phenethyl]piperidin-4-yl}indoline] the same measures were 4.2 nM and 1.1 nM.
On to `O=S(=O)(NCCN1CCC(N2CCc3ccccc32)CC1)c1ccc(Cl)cc1` [Example 47, 1-{1-[2-(4-chlorophenylsulfonylamino)ethyl]piperidin-4-yl}indoline], for which the Ki at serotonin 2 receptor came to 92.3 nM; at serotonin 1A receptor, 206 nM.
Regarding `COc1ccc(S(=O)(=O)NCCN2CCC(N3CCc4ccccc43)CC2)cc1` [Example 48, 1-{1-[2-(4-methoxyphenylsulfonylamino)ethyl]piperidin-4-yl}indoline], the Ki at serotonin 2 receptor came out at 35 nM; on serotonin 1A receptor, 15.3 nM.
For `c1ccc2c(c1)CCN2C1CCN(CCc2ccncc2)CC1` [Example 49, 1-{1-[2-(4-pyridyl)ethyl]piperidin-4-yl}indoline] the same measures were 29.9 nM and 54.5 nM.
For `c1ccc(CCN2CCC(N3CCc4ccccc43)CC2)nc1` [Example 50, 1-{1-[2-(2-pyridyl)ethyl]piperidin-4-yl}indoline] the same measures were 52.2 nM and 31.2 nM.
Regarding `COc1ccc(CCN2CCC(N3CCc4ccccc43)CC2)cn1` [Example 52, 1-{1-[2-(2-methoxy-5-pyridyl)ethyl]piperidin-4-yl}indoline], the Ki was 5.6 nM at serotonin 2 receptor and 2.5 nM on serotonin 1A receptor.
For `COc1cncc(CCN2CCC(N3CCc4ccccc43)CC2)c1` [Example 53, 1-{1-[2-(3-methoxypyridin-5-yl)ethyl]piperidin-4-yl}indoline] the same measures were 2.1 nM and 21.5 nM.
`N#Cc1ccc(CCN2CCC(N3CCc4ccccc43)CC2)cn1` [Example 54, 1-{1-[2-(2-cyanopyridin-5-yl)ethyl]piperidin-4-yl}indoline]: the Ki at serotonin 2 receptor was determined as 10.3 nM; on serotonin 1A receptor, 7.1 nM.
In the same order, the values of `OCc1ccc(CCN2CCC(N3CCc4ccccc43)CC2)cn1` [Example 55, 1-{1-[2-(2-hydroxymethylpyridin5-yl)ethyl]piperidin-4-yl}indoline] are 17.8 nM and 41.9 nM.
For `OCc1cncc(CCN2CCC(N3CCc4ccccc43)CC2)c1` [Example 56, 1-{1-[2-(3-hydroxymethylpyridin-5-yl)ethyl]piperidin-4-yl}indoline] the same measures were 1.7 nM and 20.7 nM.
For `Fc1ccc(CCN2CCC(N3CCc4ccccc43)CC2)c(F)n1` [Example 57, 1-[1-(2,6-difluoro-3-pyridylethyl)piperidin-4-yl]indoline] the same measures were 1.1 nM and 14.6 nM.
As for `c1csc(CCN2CCC(N3CCc4ccccc43)CC2)c1` [Example 58, 1-{1-[2-(2-thienyl)ethyl]piperidin-4-yl}indoline], the Ki at serotonin 2 receptor came out at 34.8 nM; at serotonin 1A receptor, 26.2 nM.
In the same order, the values of `c1ccc2c(c1)CCN2C1CCN(CCc2ccsc2)CC1` [Example 59, 1-{1-[2-(3-thienyl)ethyl]piperidin-4-yl}indoline] are 28.9 nM and 12 nM.
In the same order, the values of `c1ccc2c(c1)CCN2C1CCN(CCc2nccs2)CC1` [Example 60, 1-[1-(2-thiazolylethyl)piperidin-4-yl]indoline] are greater than 200 nM and 60.8 nM.
For `Cc1ncsc1CCN1CCC(N2CCc3ccccc32)CC1` [Example 61, 1-[1-(4-methyl-5-thiazolethyl)piperidin-4-yl]indoline] the same measures were 12.5 nM and 5 nM.
Consider `c1ccc2c(c1)CCN2C1CCN(CCc2c[nH]c3ccccc23)CC1` [Example 62, 1-{1-[(indol-3-yl)ethyl]-piperidin-4-yl}indoline], for which the Ki is 7.4 nM on serotonin 2 receptor and 6.2 nM on serotonin 1A receptor.
For `c1ccc2c(c1)CCN2C1CCN(CCc2ccc3ncsc3c2)CC1` [Example 63, 1-{1-[2-(6-benzothiazolyl)ethyl]piperidin-4-yl}indoline] the same measures were 1.2 nM and 3.2 nM.
In the same order, the values of `COc1ccc(CCN2CCC(N3CCc4ccccc43)CC2)s1` [Example 64] are 14.2 nM and 14.8 nM.
For `N#Cc1ncc(CCN2CCC(N3CCc4ccccc43)CC2)s1` [Example 66] the same measures were 85 nM and 50.9 nM.
Regarding `c1ccc2c(c1)CCN2C1CCN(CCc2cnccn2)CC1` [Example 67, 1-(1-pyrazinylethylpiperidin-4-yl)indoline], the Ki on serotonin 2 receptor was 27.1 nM; at serotonin 1A receptor, 263 nM.
For `Brc1cnn(CCN2CCC(N3CCc4ccccc43)CC2)c1` [Example 68, 1-{1-[2-(4-bromopyrazol-1-yl)ethyl]piperidin-4-yl}indoline] the same measures were 39.5 nM and 47.2 nM.
For `Fc1ccc(OCCCN2CCC(N3CCc4ccccc43)CC2)cc1` [Example 69, 1-{1-[3-(4-fluorophenoxy)propyl]piperidin-4-yl}indoline] the same measures were 29.9 nM and 9.7 nM.
For the compound `OCc1ccc(OCCCN2CCC(N3CCc4ccccc43)CC2)cc1` [Example 70, 1-{1-[3-(4-hydroxymethylphenoxy)propyl]piperidin-4-yl}indoline], the results for the Ki on serotonin 2 receptor and at serotonin 1A receptor were 27.6 nM and 41.9 nM, respectively.
In the same order, the values of `OCCc1ccc(OCCCN2CCC(N3CCc4ccccc43)CC2)cc1` [Example 71, 1-{1-[3-(4-hydroxyethylphenoxy)propyl]piperidin-4-yl}indoline] are 28.2 nM and 25.4 nM.
For `O=C(CCCN1CCC(N2CCc3ccccc32)CC1)c1ccc(F)cc1` [Example 72, 1-{1-[4-(4-fluorophenyl)-4-oxobutyl]piperidin-4-yl}indoline] the same measures were 21.1 nM and 25.9 nM.
For `OC(CCCN1CCC(N2CCc3ccccc32)CC1)c1ccc(F)cc1` (stereo not drawn) [Example 73, 1-{1-[4-(4-fluorophenyl)-4-hydroxybutyl]piperidin-4-yl}indoline] the same measures were 7.2 nM and 34.9 nM.
With `O=C(NCCN1CCC(N2CCc3ccccc32)CC1)c1ccc(F)cc1` [Example 75, 1-[1-(4-fluorobenzamido)ethylpiperidin-4-yl]indoline], the Ki on serotonin 2 receptor came to 30.3 nM; at serotonin 1A receptor, 3.6 nM.
In the same order, the values of `COc1ccc(CC(C)N2CCC(N3CCc4ccccc43)CC2)cc1OC` (stereo not drawn) [Example 76, 1-{1-[1-(3,4-dimethoxyphenyl)propan-2-yl]piperidin-4-yl}indoline] are greater than 200 nM and 43.2 nM.
Turning to `c1ccc2c(c1)CCN2C1CCN(CCCOc2ccc3c(c2)OCO3)CC1` [Example 78, 1-{1-[3-(3,4-methylenedioxypheoxy)propyl]piperidin-4-yl}indoline], the Ki at serotonin 2 receptor worked out at 29.6 nM; at serotonin 1A receptor it was 2.4 nM.
For `Fc1ccc(CCN2CCC(N3CCc4ccc(Cl)cc43)CC2)cc1` [Example 102, 1-[1-(4-fluorophenethyl)piperidin-4-yl]-6-chloroindoline] the same measures were 28.4 nM and 2.7 nM.
In the same order, the values of `Oc1ccc2c(c1)N(C1CCN(CCc3ccc(F)cc3)CC1)CC2` [Example 104, 1-[1-(4-fluorophenethyl)piperidin-4-yl]-6-hydroxyindoline] are 6 nM and 2.4 nM.
In the same order, the values of `COc1cccc2c1CCN2C1CCN(CCc2ccc(F)cc2)CC1` [Example 105, 1-[1-(4-fluorophenethyl)piperidin-4-yl]-4-methoxyindoline] are 17.4 nM and greater than 200 nM.
Regarding `COc1cccc2c1N(C1CCN(CCc3ccc(F)cc3)CC1)CC2` [Example 107, 1-[1-(4-fluorophenethyl)piperidin-4-yl]-7-methoxyindoline], the results for the Ki at serotonin 2 receptor and on serotonin 1A receptor were 1.7 nM and 7.7 nM, respectively.
For `COc1ccc2c(c1OC)N(C1CCN(CCc3ccc(F)cc3)CC1)CC2` [Example 108, 1-[1-(4-fluorophenethyl)piperidin-4-yl]-6,7-dimethoxyindoline] the same measures were 2.2 nM and 172 nM.
In the same order, the values of `Nc1ccc2c(c1)N(C1CCN(CCc3ccc(F)cc3)CC1)CC2` [Example 110, 1-[1-(4-fluorophenethyl)piperidin-4-yl]-6-aminoindoline] are 16 nM and 23.3 nM.
Take `CNc1ccc2c(c1)N(C1CCN(CCc3ccc(F)cc3)CC1)CC2` [Example 111, 1-[1-(4-fluorophenethyl)piperidin-4-yl]-6-methylaminoindoline]: the Ki on serotonin 2 receptor is 74.2 nM; on serotonin 1A receptor it was 5.5 nM.
